Assay results from US20240190883A1, “KRAS PROTEIN DEGRADERS, PHARMACEUTICAL COMPOSITIONS THEREOF, AND THEIR THERAPEUTIC APPLICATIONS” (BioTheryX, Inc., priority 2021, published 2024).

Legend:
Assay type in all cases: cell-based
Details in all cases: 24 h, HiBiT signal normalized to CTG signal
KRAS protein [1] = molecular target: T1, KRAS protein (Homo sapiens, UniProt P01116, G12C); experiment: HIBIT degradation assay, MIA PaCa-2 cells
T1 construct: engineered to express a Hobbit-tagged endogenous KRAS protein; endogenous in cells; host or cells: MIA PaCa-2, endogenous KRAS locus engineered with a HiBiT tag
T1 sequence (P01116 whole entry G12C): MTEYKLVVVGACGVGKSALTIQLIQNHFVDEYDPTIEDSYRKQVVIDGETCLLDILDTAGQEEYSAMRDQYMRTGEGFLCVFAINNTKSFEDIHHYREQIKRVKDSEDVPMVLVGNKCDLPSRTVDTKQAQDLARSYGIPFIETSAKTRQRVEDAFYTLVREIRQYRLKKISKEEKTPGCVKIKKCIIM
Procedure: (§1) HEK293, MIA PaCa-2, AsPc-1, SW620, and H647 cells were engineered to express a […] endogenous KRAS protein. The HEK293 and MIA PaCa-2 cells were cultured in DMEM media supplemented with 10% fetal bovine serum, streptomycin, and penicillin. The AsPc-1, SW620, and H647 were cultured in RPMI media supplemented with 10% fetal bovine serum, streptomycin, and penicillin. The cells were seeded in white walled 96-well plates at 20,000 cells/well in 100 μL culture media in duplicate plates. After incubated at 37° C. under 5% CO2 overnight, the cells were treated with DMSO (control) or a compound, followed by the addition of 100 μL culture media to each well. After the cells were incubated for 24 h at 37° C. under 5% C02, 150 μL media were removed from each well and 50 μL NANOGLO-LGBIT lytic reagent were added to each well, and 50 μL CELLTITER-GLO (CTG) reagent was added to the duplicate plate. Following a 10-minute incubation with shaking, luminescence was measured using a Perkin Elmer ENVISION multimode plate reader. HiBiT signal was normalized to CTG signal. The results are summarized in Table 3, where “A” represents a percentage degradation value of no less than 50%; “B” represents a percentage degradation value of less than 50% and no less than 25%; “C” represents a percentage degradation value of less than 25% and no less than 10%; and “D” represents a percentage degradation value of less than 10%.

KRAS protein [2] = molecular target: T2, KRAS protein (Homo sapiens, UniProt P01116, G12D); experiment: HIBIT degradation assay, AsPC-1 cells
T2 construct: engineered to express a Hobbit-tagged endogenous KRAS protein; endogenous in cells; host or cells: AsPC-1, endogenous KRAS locus engineered with a HiBiT tag
T2 sequence (P01116 1-188 isoform P01116-2 G12D): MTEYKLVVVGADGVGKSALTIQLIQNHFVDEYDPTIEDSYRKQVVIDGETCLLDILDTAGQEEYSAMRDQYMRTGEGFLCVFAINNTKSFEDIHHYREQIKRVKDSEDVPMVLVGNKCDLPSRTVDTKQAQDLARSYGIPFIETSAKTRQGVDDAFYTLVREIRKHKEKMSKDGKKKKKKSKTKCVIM
Procedure: as §1

KRAS protein [3] = molecular target: T3, KRAS protein (Homo sapiens, UniProt P01116); experiment: HIBIT degradation assay, HEK293 cells
T3 construct: engineered to express a Hobbit-tagged endogenous KRAS protein; endogenous in cells; host or cells: HEK293, endogenous KRAS locus engineered with a HiBiT tag
T3 sequence (P01116 1-188 isoform P01116-2): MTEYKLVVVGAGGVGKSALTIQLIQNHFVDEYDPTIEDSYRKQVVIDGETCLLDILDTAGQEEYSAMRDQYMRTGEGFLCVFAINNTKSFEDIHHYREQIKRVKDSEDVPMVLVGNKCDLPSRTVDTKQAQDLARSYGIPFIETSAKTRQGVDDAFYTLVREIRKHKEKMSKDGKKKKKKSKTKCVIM
Procedure: as §1

SMILES: Cc1nn2c(N3CCN(CCO)CC3)cc(-c3ccc(F)cc3)nc2c1-c1cccc(CCCCCN2CCN(C(=O)CNc3ccc4c(C5CCC(=O)NC5=O)nn(C)c4c3)CC2)c1 (stereo not drawn) [Compound D19, 3-(6-((2-(4-(5-(3-(5-(4-Fluorophenyl)-7-(4-(2-hydroxyethyl)piperazin-1-yl)-2-methylpyrazolo[1,5-a]pyrimidin-3-yl)phenyl)pentyl)piperazin-1-yl)-2-oxoethyl)amino)-1-methyl-1H-indazol-3-yl)piperidine-2,6-dione]
- Effect on KRAS Protein Degradation, MIA PaCa-2, 3 μM (KRAS protein [1]; compound at 3 μM): D (a percentage degradation value of less than 10%)
- Effect on KRAS Protein Degradation, MIA PaCa-2, 5 μM (KRAS protein [1]; compound at 5 μM): C (a percentage degradation value of less than 25% and no less than 10%)
- Effect on KRAS Protein Degradation, AsPC-1, 3 μM (KRAS protein [2]; compound at 3 μM): C (a percentage degradation value of less than 25% and no less than 10%)
- Effect on KRAS Protein Degradation, AsPC-1, 5 μM (KRAS protein [2]; compound at 5 μM): C (a percentage degradation value of less than 25% and no less than 10%)
- Effect on KRAS Protein Degradation, HEK293, 3 μM (KRAS protein [3]; compound at 3 μM): D (a percentage degradation value of less than 10%)
- Effect on KRAS Protein Degradation, HEK293, 5 μM (KRAS protein [3]; compound at 5 μM): D (a percentage degradation value of less than 10%)
